Data on 19 compounds can be found in patent publication US8426406B2, “Glucocorticoid receptor agonist comprising 2,2,4-trimethyl-6-phenyl-1,2-dihydroquinoline derivatives having substituted oxy group” (Santen Pharmaceutical Co., Ltd., priority 2008, dated 2013).

Test [1] deals with IL-6 production induced by lipopolysaccharide (LPS) in human corneal epithelial cells. The test is described as follows: Evaluation test for GR agonist activity: inhibition of LPS-induced IL-6 production in human corneal epithelial cells (HCE-T). The class given is cell-based. The following applies: Corneal epithelial cell, 10 μL of 100 μM test compound solution per well, 4 hours incubation, efficacy relative to DEX. A digest of the protocol:
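SV40-immortalized HCE-T cells were treated with test compound (100 μM solution, stock before dilution into well) plus LPS (1 μg/mL solution, likewise pre-dilution) for 4 hours in 10% FBS-DMEM/F12. IL-6 in supernatants was measured by HTRF. Inhibition was calculated relative to LPS-plus-DMSO and no-LPS controls, and efficacy was expressed as % of DEX inhibition.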

The test system of test [2] is choroidal neovascularization (CNV) model in rats. The test is described as follows: Evaluation test for inhibitory effect of choroidal neovascularization (laser induced CNV model in rats). The following applies: Brown Norway rats, 1% (w/v) suspension eye drops four times a day or 20 mg/mL subconjunctival injection (route not given), vs vehicle, mean of 7-8 eyes in 4 rats. The class given is in vivo. How it is done:
The choroidal neovascularization (CNV) model in rats is known as one of the popular methods for evaluating the CNV inhibitory effect of drugs. This method is reported in Graefe's Arch. Cli. Exp. Ophthalmol., 235, 313-319 (1997). According to this method, the CNV examinations were performed to evaluate the CNV inhibitory effect of test compounds by comparing the incidence rates of CNV in vehicle group (control group) with test compound-treated groups.
For eye drop administration, a 1% (w/v) test compound suspension was prepared by adding 0.5% polysorbate 80/saline to the test compound. For subconjunctival injection, a 20 mg/mL test compound suspension was prepared by adding 0.5% hydrogenated castor oil/saline to the test compound.
1) Brown Norway male rats (7-8 weeks, 140-240 g) were anesthetized with intramuscular injection (1 mL/kg) of the mixed solution (5% ketamine HCl: 2% xylazine HCl=7:1).
2) After mydriasis using tropicamide phenylephrine hydrochloride eye drops (trade name Mydrin P), laser photocoagulation of bruch's membrane in rats was performed with krypton laser photocoagulation machine. Laser irradiation was performed at 8-9 points per eye avoiding thick retinal blood vessels in ocular fundus and focusing on the depth of retina. The conditions were 100 μm spot size, 100 mW power, 0.1 second duration.
3) After laser photocoagulation, photographs of ocular fundus were taken and the laser photocoagulation (laser irradiation) points were confirmed.
1) In case of eye drops administration, a test compound suspension was administrated four times a day from laser irradiation day (the 1st day) to the 8th day. In case of subconjunctival injection, a 50 μL test compound suspension was injected into conjunctivae just after laser irradiation.
2) In vehicle group (control group), 0.5% polysorbate 80/saline or 0.5% hydrogenated castor oil/saline was used instead of a test compound suspension. And the test was performed according to the method 1).
1) 7 days after laser irradiation, 0.1 mL of 10% fluorescein was injected into rat tail vein and fluorescein angiography was performed.
2) When the fluorescent leakage was not detected in the fluorescent angiography, the spot was judged to be a negative spot. When the fluorescent leakage was detected, the spot was judged to be a positive spot. When the fluorescent leakage was detected as a little leakage, two spots were counted as one positive spot.
3) The neovascular incidence rate was calculated according to the equation 1. According to the equation 2, the ratio of neovascular incidence rate in test compound group to vehicle group was calculated. Neovascular incidence rate(%)=(Positive spots/all spots)×100 (Equation 1) Angiogenic inhibition ratio in test compound group(%)=(1−Ax/Ao)×100 (Equation 2)
Ao: Neovascular incidence rate in vehicle group (control group)
Ax: Neovascular incidence rate in test compound group

SMILES strings stand for the structures.

`COc1ccc([N+](=O)[O-])cc1OCc1c(-c2ccc(OS(=O)(=O)C3CC3)cc2OC)ccc2c1C(C)=CC(C)(C)N2` [Compound 4-8, 6-(4-Cyclopropylsulfonyloxy-2-methoxyphenyl)-5-(2-methoxy-5-nitrophenoxymethyl)-2,2,4-trimethyl-1,2-dihydroquinoline] gave an Emax in test [1] of 78%. In test [2], the “Angiogenic inhibition ratio (%)” value stood at 26%.
The matching figures for `COc1cc(OC(=O)c2cccnc2C)ccc1-c1ccc2c(c1COc1cc(F)ccc1C)C(C)=CC(C)(C)N2` [Compound 1-49, 5-(5-Fluoro-2-methylphenoxymethyl)-6-[2-methoxy-4-(2-methylpyridin-3-ylcarbonyloxy)phenyl]-2,2,4-trimethyl-1,2-dihydroquinoline]: 96% and 23%.
Regarding `COc1cc(OC(=O)C(C)C)ccc1-c1ccc2c(c1COc1cc(F)ccc1C)C(C)=CC(C)(C)N2` [Compound 1-14, 5-(5-Fluoro-2-methylphenoxymethyl)-6-(4-isobutyryloxy-2-methoxyphenyl)-2,2,4-trimethyl-1,2-dihydroquinoline], the Emax in test [1] amounted to 79%. Further, in test [2], the “Angiogenic inhibition ratio (%)” value is 46%.
The matching figures for `COc1cc(OC(=O)N2CCOCC2)ccc1-c1ccc2c(c1COc1cc(F)ccc1C)C(C)=CC(C)(C)N2` [Compound 6-31, 5-(5-Fluoro-2-methylphenoxymethyl)-6-[2-methoxy-4-(morpholin-4-ylcarbonyloxy)phenyl]-2,2,4-trimethyl-1,2-dihydroquinoline]: 86% and 45%.
`COc1cc(OS(=O)(=O)C(C)C)ccc1-c1ccc2c(c1COc1cc(F)ccc1C)C(C)=CC(C)(C)N2` [Compound 4-5, 5-(5-Fluoro-2-methylphenoxymethyl)-6-(4-isopropylsulfonyloxy-2-methoxyphenyl)-2,2,4-trimethyl-1,2-dihydroquinoline] came in with an Emax in test [1] of 90%. Moreover, in test [2], the “Angiogenic inhibition ratio (%)” value turned out to be 38%.
For `COc1cc(OC(=O)N(C)C)ccc1-c1ccc2c(c1COc1cc(F)ccc1C)C(C)=CC(C)(C)N2` [Compound 6-3, 6-(4-Dimethylaminocarbonyloxy-2-methoxyphenyl)-5-(5-fluoro-2-methylphenoxymethyl)-2,2,4-trimethyl-1,2-dihydroquinoline], the Emax in test [1] was determined as 83%. In test [2], the “Angiogenic inhibition ratio (%)” value was found to be 38%.
The corresponding values for `COc1ccc(OC(=O)c2ccco2)cc1-c1ccc2c(c1COc1cc(F)ccc1C)C(C)=CC(C)(C)N2` [Compound 1-17, 5-(5-Fluoro-2-methylphenoxymethyl)-6-[5-(furan-2-ylcarbonyloxy)-2-methoxyphenyl]-2,2,4-trimethyl-1,2-dihydroquinoline] are 84% and 35%.
The matching figures for `CCCC(=O)Oc1ccc(-c2ccc3c(c2COc2cc(F)ccc2C)C(C)=CC(C)(C)N3)c(OC)c1` [Compound 1-9, 6-(4-Butyryloxy-2-methoxyphenyl)-5-(5-fluoro-2-methylphenoxymethyl)-2,2,4-trimethyl-1,2-dihydroquinoline]: 79% and 31%.
`CCS(=O)(=O)Oc1ccc(-c2ccc3c(c2COc2cc(F)ccc2C)C(C)=CC(C)(C)N3)c(OC)c1` [Compound 4-4, 6-(4-Ethylsulfonyloxy-2-methoxyphenyl)-5-(5-fluoro-2-methylphenoxymethyl)-2,2,4-trimethyl-1,2-dihydroquinoline] had an Emax in test [1] of 89%.
For `COc1ccccc1NCc1c(-c2ccc(OC(=O)N3CCOCC3)cc2OC)ccc2c1C(C)=CC(C)(C)N2` [Compound 6-35, 6-[2-Methoxy-4-(morpholin-4-ylcarbonyloxy)phenyl]-5-(2-methoxyphenylaminomethyl)-2,2,4-trimethyl-1,2-dihydroquinoline], the maximal effect (Emax) in test [1] amounted to 87%. The “Angiogenic inhibition ratio (%)” value in test [2] is given as 26%.
Turning to `COc1cc(OC(=O)c2cccnc2OC)ccc1-c1ccc2c(c1COC(=O)c1ccc(C)s1)C(C)=CC(C)(C)N2` [Compound 1-166, 6-[2-Methoxy-4-(2-methoxypyridin-3-ylcarbonyloxy)phenyl]-5-(5-methylthiophen-2-ylcarbonyloxymethyl)-2,2,4-trimethyl-1,2-dihydroquinoline], the Emax in test [1] is 91%.
The same measure, in the same setting: for `CCS(=O)(=O)Oc1ccc(-c2ccc3c(c2COc2cc([N+](=O)[O-])ccc2C)C(C)=CC(C)(C)N3)c(OC)c1` [Compound 4-11, 6-(4-Ethylsulfonyloxy-2-methoxyphenyl)-5-(2-methyl-5-nitrophenoxymethyl)-2,2,4-trimethyl-1,2-dihydroquinoline] the value was 75%.
Take `COc1ccc(OC(=O)c2cccnc2)cc1-c1ccc2c(c1COc1cc(F)ccc1C)C(C)=CC(C)(C)N2` [Compound 1-19, 5-(5-Fluoro-2-methylphenoxymethyl)-6-[2-methoxy-5-(pyridin-3-ylcarbonyloxy)phenyl]-2,2,4-trimethyl-1,2-dihydroquinoline]: the Emax in test [1] is 78%. Further, the “Angiogenic inhibition ratio (%)” value in test [2] worked out at 30%.
The matching figures for `COc1cc(OC(=O)c2ccoc2)ccc1-c1ccc2c(c1COc1cc(F)ccc1C)C(C)=CC(C)(C)N2` [Compound 1-25, 5-(5-Fluoro-2-methylphenoxymethyl)-6-[4-(furan-3-ylcarbonyloxy)-2-methoxyphenyl]-2,2,4-trimethyl-1,2-dihydroquinoline]: 83% and 50%.
Turning to `COc1cc(OS(=O)(=O)C2CC2)ccc1-c1ccc2c(c1COc1cc(F)ccc1C)C(C)=CC(C)(C)N2` [Compound 4-14, 6-(4-Cyclopropylsulfonyloxy-2-methoxyphenyl)-5-(5-fluoro-2-methylphenoxymethyl)-2,2,4-trimethyl-1,2-dihydroquinoline], in test [1], the Emax was 80%.
In turn, `COc1cc(OC(=O)c2ccncc2)ccc1-c1ccc2c(c1COc1cc(F)ccc1C)C(C)=CC(C)(C)N2` [Compound 1-33, 5-(5-Fluoro-2-methylphenoxymethyl)-6-[2-methoxy-4-(pyridin-4-ylcarbonyloxy)phenyl]-2,2,4-trimethyl-1,2-dihydroquinoline] displayed an Emax in test [1] of 82%. In addition, the “Angiogenic inhibition ratio (%)” value in test [2] was found to be 29%.
For the compound `COc1cc(OC(=O)c2ccsc2)ccc1-c1ccc2c(c1COC(=O)c1ccc(C)s1)C(C)=CC(C)(C)N2` [Compound 1-147, 6-[2-Methoxy-4-(thiophen-3-ylcarbonyloxy)phenyl]-5-(5-methylthiophen-2-ylcarbonyloxymethyl)-2,2,4-trimethyl-1,2-dihydroquinoline], in test [1], the Emax worked out at 80%.
The same measure, in the same setting: for `COc1cc(OC(=O)c2ccncc2F)ccc1-c1ccc2c(c1COc1cc(F)ccc1C)C(C)=CC(C)(C)N2` [Compound 1-69, 5-(5-Fluoro-2-methylphenoxymethyl)-6-[4-(3-fluoropyridin-4-ylcarbonyloxy)-2-methoxyphenyl]-2,2,4-trimethyl-1,2-dihydroquinoline] the value was 72%.
The same measure, in the same setting: in the case of `COc1cc(OC(=O)c2cccnc2)ccc1-c1ccc2c(c1COC(=O)c1ccc(C)cc1)C(C)=CC(C)(C)N2` [Compound 1-133, 5-(4-Methylbenzoyloxymethyl)-6-[2-methoxy-4-(pyridin-3-ylcarbonyloxy)phenyl]-2,2,4-trimethyl-1,2-dihydroquinoline] it was 74%.

One may read the Emax as the maximal effect, on the per cent scale that the assay sets.
